Experimental data: patent US8415309B2, “Bicyclic nucleosides and nucleotides as therapeutic agents” (priority 2009, dated 2013)
Read-outs that look alike come from different tables or passages of the source.

How the values were obtained:
[1] = test system: HCV RNA replication (HCV subgenomic replicon in MP-1 cells); assay: Cell-Based HCV RNA Replication Luciferase Reporter Assay; settings: Hepatitis C virus; for inhibition at 50 µM: read-out: Inhibition at 50 μM (%); for EC50: 72 h
[2] = Cytotoxicity (CellTiter-Blue / MTT) run with the replicon assay; assay type: cell-based; settings: human, MP-1 cells
Procedure: The assay outline includes the following steps on Day 1: (1) Plate cells at a density of 10,000 cells/well of a 96 well plate and incubate 37° C.; (2) Make compound dilutions; (3) Add compound dilutions to cells; (4) Incubate for 72 h. The assay includes the following steps on Day 4: (1) Perform Cell titer blue assay for cytotoxicity (the assay is based on the reduction of resazurin (cell titer blue) into a fluorescent product, resorufin, in metabolically active cells, and the assay can be duplexed with the assay used for HCV replicon luciferase reporter assay); (2) Perform luciferase assay with the Bright-Glo luciferase substrate (Promega) and read luminescence; (3) Process results.
Under the Alamar blue assay protocol, the assay plates are removed from a 37° C. incubator, and 20 μl of CellTiter-Blue™ Reagent is added. The cells are incubated in the 37° C. incubator for 3 h. The assay plates are shaken for 10 sec and fluorescence at 560Ex/590Em nm is recorded. The results are expressed relative to the 100% untreated control using the following equation: […]=100−[(RFUcompound−RFUblank/RFUuntreated−RFUblank)×100]. Alternatively, under the MTT protocol the extent of cytotoxicity is determined via metabolism of the vital dye 3-(4,5-dimethylthiaxol-2-yl)-2,5-diphenyltetrazolium bromide (MTT). MTT (1 mg/ml) was added to each well and plates incubated for 3 hours incubation at 37° C. Wells were aspirated, iso-propanol […] was added and absorbance values read at 540/690 nm. Compound concentrations that developed 50% cytotoxicity (CC50) were calculated using non-linear regression analysis.

[3] = Pharmacokinetics in rats; assay type: in vivo, male Sprague-Dawley rats; settings: Rat
Procedure: (§1) The pharmacokinetic properties of Compound 9 were determined in male Sprague-Dawley rats, beagle dogs and cynomolgus monkeys (n=3 in each species) with an oral dose of 5 mg/kg and iv dose of 2 mg/kg. PK parameters were analyzed using the WinNonlin noncompartmental model.

[4] = Pharmacokinetics in monkeys; assay type: in vivo, cynomolgus monkeys
Procedure: as §1

[5] = Pharmacokinetics in dogs; assay type: in vivo, beagle dogs; settings: Dog
Procedure: as §1

[6] = Cross-species PK summary; assay type: in vivo, rats, monkeys and dogs; settings: Sprague-Dawley (rat), beagle (dog), cynomolgus (monkey), plasma
Procedure: as §1

[7] = MP-1 cells, luciferase readout, read-out: EC50
[8] = oral 5 mg/kgBW, read-out: Cmax (maximum concentration observed following the oral dose)

Compound	inhibition at 50 µM ([1]; 50 μM compound) [%]	EC50 [1, 7] [µM]	CC50 at 72 h [2] [µM]	other results
C[C@@]1(O)[C@H](O)[C@@H](CO)O[C@H]1c1ccc2c(N)ncnn12 [Compound 9, 4-amino-7-(2-C-methyl-β-D-ribofuranosyl)-pyrrolo[2,1-f][1,2,4]triazine]	99	1.3	365	Cmax [3, 8]: 2380 nM; CL (total clearance) ([3]; single iv 2 mg/kgBW): 18.8 mL/min/kgBW; Vss (steady state volume distribution) ([3]; single iv 2 mg/kgBW): 4.19 L/kgBW; bioavailability ([3]; male, Sprague-Dawley, plasma, 5 mg/kg, oral 5 mg/kgBW vs iv 2 mg/kgBW, read-out: F % (oral bioavailability)): 83%; AUC ([3]; male, Sprague-Dawley, plasma, 5 mg/kg, single iv (2 mg/kgBW) or oral dose (5 mg/kgBW), read-out: AUC (area under the curve of plasma exposure)): 13 µM·h; half-life ([3]; male, Sprague-Dawley, plasma, single iv (2 mg/kgBW) or oral dose (5 mg/kgBW), read-out: t1/2 (terminal elimination half-life) (converted)): 4 h; CL (total clearance) ([4]; Monkey, single iv 2 mg/kgBW): 20.5 mL/min/kgBW; Vss (steady state volume distribution) ([4]; Monkey, single iv 2 mg/kgBW): 2.43 L/kgBW; bioavailability ([4]; cynomolgus monkey, plasma, 5 mg/kg, oral 5 mg/kgBW vs iv 2 mg/kgBW, read-out: F % (oral bioavailability)): 33%; Cmax ([4]; cynomolgus monkey, plasma, 5 mg/kg, oral 5 mg/kgBW, read-out: Cmax (maximum concentration observed following the oral dose)): 820 nM; AUC ([4]; cynomolgus monkey, plasma, 5 mg/kg, single iv (2 mg/kgBW) or oral dose (5 mg/kgBW), read-out: AUC (area under the curve of plasma exposure)): 5 µM·h; half-life ([4]; cynomolgus monkey, plasma, single iv (2 mg/kgBW) or oral dose (5 mg/kgBW), read-out: t1/2 (terminal elimination half-life) (converted)): 4.3 h; Cmax [5, 8]: 8360 nM; CL (total clearance) ([5]; single iv 2 mg/kgBW): 11.4 mL/min/kgBW; Vss (steady state volume distribution) ([5]; single iv 2 mg/kgBW): 5.22 L/kgBW; bioavailability ([5]; beagle, plasma, 5 mg/kg, oral 5 mg/kgBW vs iv 2 mg/kgBW, read-out: F % (oral bioavailability)): 96%; AUC ([5]; beagle, plasma, 5 mg/kg, single iv (2 mg/kgBW) or oral dose (5 mg/kgBW), read-out: AUC (area under the curve of plasma exposure)): 24.9 µM·h; half-life ([5]; beagle, plasma, single iv (2 mg/kgBW) or oral dose (5 mg/kgBW), read-out: t1/2 (terminal elimination half-life) (converted)): 7.6 h; bioavailability ([6]; po, 5 mg/kg, range over rat, monkey, dog, read-out: oral bioavailability across species): 33 to 96%; half-life ([6]; range over preclinical animal species (rat, monkey, dog), read-out: plasma / elimination half-life across species): 4 to 7.6 h
C[C@@]1(O)[C@H](O)[C@@H](CO)O[C@H]1c1cc(F)c2c(N)ncnn12 [Compound 11, 4-amino-5-fluoro-7-(2-C-methyl-β-D-ribofuranosyl)-pyrrolo[2,1-f][1,2,4]triazine]	97	3.1	> 100	
C[C@@]1(O)[C@H](O)[C@@H](CO)O[C@H]1c1cc(Cl)c2c(N)ncnn12 [Compound 12, 4-amino-5-chloro-7-(2-C-methyl-β-D-ribofuranosyl)-pyrrolo[2,1-f][1,2,4]triazine]	99	0.22	6.5	
C[C@@]1(O)[C@H](O)[C@@H](CO)O[C@H]1c1cc(I)c2c(N)ncnn12 [Compound 13, 4-amino-5-iodo-(2-C-methyl-β-D-ribofuranosyl)-pyrrolo[2,1-f][1,2,4]triazine]	97			
C[C@@]1(O)[C@H](O)[C@@H](CO)O[C@H]1c1cc(C#N)c2c(N)ncnn12 [Compound 14, 4-amino-7-(2-C-methyl-β-D-ribofuranosyl)-pyrrolo[2,1-f][1,2,4]triazine-5-carbonitrile]	100	1.4	18.8	
C[C@@]1(O)[C@H](O)[C@@H](CO)O[C@H]1c1cc(C(N)=O)c2c(N)ncnn12 [Compound 15, 4-amino-7-(2-C-methyl-β-D-ribofuranosyl)-pyrrolo[2,1-f][1,2,4]triazine-5-carboxylic acid amide]	100	0.0062	0.37	
C[C@@]1(O)[C@H](O)[C@@H](CO)O[C@H]1c1cc(C#C[Si](C)(C)C)c2c(N)ncnn12 [Compound 16, 4-amino-5-trimethylsilanylethynyl-7-(2-C-methyl-β-D-ribofuranosyl)-pyrrolo[2,1-f][1,2,4]triazine]	99			
C#Cc1cc([C@@H]2O[C@H](CO)[C@@H](O)[C@@]2(C)O)n2ncnc(N)c12 [Compound 17, 4-Amino-5-ethynyl-7-(2-C-methyl-β-D-ribofuranosyl)-pyrrolo[2,1-f][1,2,4]triazine]	98			
C[C@@]1(O)[C@H](O)[C@@H](CO)O[C@H]1c1ccc2c(N)nc(N)nn12 [Compound 20, 2,4-diamino-7-(2-C-methyl-β-D-ribofuranosyl)-pyrrolo[2,1-f][1,2,4]triazine]	19			
C[C@@]1(O)[C@H](O)[C@@H](CO)O[C@H]1c1cc(-c2ncco2)c2c(N)ncnn12 [Compound 22, 4-amino-5-oxazol-2-yl-7-(2-C-methyl-β-D-ribofuranosyl)-pyrrolo[2,1-f][1,2,4]triazine]	95			
C[C@@]1(O)[C@H](O)[C@@H](CO)O[C@H]1c1c(F)cc2c(N)ncnn12 [Compound 32, 4-Amino-6-fluoro-7-(2-C-methyl-β-D-ribofuranosyl)-pyrrolo[2,1-f][1,2,4]triazin-7-yl]	23			
CC(C)(C)C(=O)OCOP(=O)(OCOC(=O)C(C)(C)C)OC[C@H]1O[C@@H](c2ccc3c(N)ncnn23)[C@](C)(O)[C@@H]1O [Compound 34, Bis-POM (pivaloyloxymethyl) prodrug of 4-amino-7-(2-C-methyl-β-D-ribofuranosyl)-pyrrolo[2,1-f][1,2,4]triazine]			45	EC50 [1]: 3.8 µM; inhibition at 50 µM [1]: 100%
C[C@@]1(O)[C@H](O)[C@@H](CO)O[C@H]1c1cc(C2=NCCN2)c2c(N)ncnn12 [Compound 35, 4-amino-5-imidazoline-7-(2-C-methyl-β-D-ribofuranosyl)-pyrrolo[2,1-f][1,2,4]triazine]	99			
C[C@@]1(O)[C@H](O)[C@@H](CO)O[C@H]1c1cc(-c2ncc[nH]2)c2c(N)ncnn12 [Compound 38, 4-amino-5-imidazole-7-(2-C-methyl-β-D-ribofuranosyl)-pyrrolo[2,1-f][1,2,4]triazine]	99			
